Experimental data as given in patent publication US6670371B2, “Certain pyrrolopyridine derivatives: novel CRF1 specific ligands” (Neurogen Corporation, priority 1995, dated 2003).

Key:
[1] = molecular target: T1, CRF receptors (Homo sapiens, UniProt P34998); assay: CRF receptor binding assay (125I-CRF displacement); conditions: membrane pellets containing CRF receptors; 125I-CRF 100 pM; room temperature for 2 hours; non specific binding defined by 1 uM cold CRF
T1 sequence (P34998 24-415): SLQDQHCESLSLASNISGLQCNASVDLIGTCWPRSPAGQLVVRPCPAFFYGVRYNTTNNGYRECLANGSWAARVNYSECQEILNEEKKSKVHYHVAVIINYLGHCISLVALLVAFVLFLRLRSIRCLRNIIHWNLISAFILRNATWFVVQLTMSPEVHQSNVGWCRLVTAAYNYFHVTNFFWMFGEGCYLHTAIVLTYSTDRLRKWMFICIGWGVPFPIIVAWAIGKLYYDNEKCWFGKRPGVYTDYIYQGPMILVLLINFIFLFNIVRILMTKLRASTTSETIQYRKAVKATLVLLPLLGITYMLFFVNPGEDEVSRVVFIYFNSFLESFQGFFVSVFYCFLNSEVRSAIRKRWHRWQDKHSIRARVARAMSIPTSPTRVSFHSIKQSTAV
Protocol: Assay for CRF Receptor Binding Activity
CRF receptor binding was performed using a modified version of the assay described by Grigoriadis and De Souza (Biochemical, Pharmacological, and Autoradiographic Methods to Study Corticotropin-Releasing Factor Receptors. Methods in Neurosciences, Vol. 5, 1991). Membrane pellets containing CRF receptors were resuspended in 50 mM Tris buffer pH 7.7 containing 10 mM MgCl2 and 2 mM EGTA and centrifuged for 10 minutes at 48000 g. Membranes were washed again and brought to a final concentration of 1500 ug/ml in binding buffer (Tris buffer above with 0.1% BSA, n 0.15 M bacitracin and 0.01 mg/ml aprotinin.). For the binding assay, 100 ul of the membrane preparation was added to 96 well microtube plates containing 100 ul of 125I-CRF (SA 2200 Ci/mmol, final concentration of 100 pM) and 50 ul of drug. Binding was carried out at room temperature for 2 hours. Plates were then harvested on a Brandel 96 well cell harvester and filters were counted for gamma emissions on a Wallac 1205 Betaplate liquid scintillation counter. Non specific binding was defined by 1 uM cold CRF.

CCCN(CCC)c1cc(C)nc2c1c1c(n2-c2c(C)cc(C)cc2C)CCCC1 [Compound 1, N,N-Dipropyl-2-methyl-6,7,8,9-tetrahydro-9-(2,4,6-trimethylphenyl)-5H-pyrido[2,3-b]indol-4-amine]
melting point: 117 to 118 °C
IC50 [1]: 11 nM
